Legend:
Format in all cases: cell-based, human
[1] = system: day 3 early somite progenitors; assay: Patterning of early somite progenitors into sclerotome or dermomyotome
Method: Day 2 paraxial mesoderm was briefly washed (DMEM/F12) and further differentiated into day 3 early somite/somitomere precursors for 24 hours (1 μM A-83-01+250 nM LDN-193189+1 μM C59+500 nM PD0325901). Subsequently, day 3 early somites were dorsoventrally patterned into either ventral somites/sclerotome (5 nM 21K+1 μM C59) or dorsal somites/dermomyotome (3 μM CHIR99021+150 nM Vismodegib). Sclerotome induction was conducted for 48-72 hours (leading to day 5-6 ventral somite progenitors). […] Media was changed 24 hours for all steps. The Hedgehog agonist 21K, which has been previously described in, e.g., Brunton et al., 2009 the disclosure of which is incorporated herein by reference in its entirety, was commercially synthesized.
Day 3 early somites were briefly washed (DMEM/F12), treated with BMP4+CHIR99021+Vismodegib for 24 hours, washed again (DMEM/F12) and subsequently treated with CHIR99021 (3 μM)+21K (5 nM) for 24 hours. This day 5 dermomyotome was further empirically differentiated towards skeletal muscle-like progeny (using medium containing 2% horse serum, which has been previously described in, e.g., Xu et al. 2013, the disclosure of which is incorporated herein by reference in its entirety) for 12 days, yielding day 17 skeletal muscle-containing populations.
FIG. 11: A) To determine the length of time required for sclerotome differentiation, a qPCR timecourse was performed, encompassing undifferentiated hESCs (D0), day 2 hESC-derived paraxial mesoderm (D2 PXM), day 3 hESC-derived early somite progenitors, and hESC-derived day 3 early somite progenitors that were exposed to sclerotome inductive conditions (5 nM 21K+1 μM C59) for 24 or 48 hours. B) Description of EF1α-BCL2-T2A-GFP lentiviral construct (otherwise known as “C306”; top) and FACS plot of a stably-transduced polyclonal H9 hESC line with near-uniform expression of the BCL2-T2A-GFP transgene (green contour) by comparison to uncolored wild-type hESCs (bottom) (see above methods for details of derivation of the H9 BCL2-T2A-GFP hESC line). C) Higher-magnification picture of BCL2-T2A-GFP hESC-derived sclerotome ectopic bone grafts (originally described above in FIG. 4, panel E), showing that despite the near-ubiquitous expression of GFP throughout the ectopic bone graft (indicating its human provenance), the blood vessels are clearly GFP-negative and therefore presumably derived from the mouse host; scale bar=1 mm. […] L) Description of EF1a-BCL2-T2A-GFP lentiviral construct (otherwise known as “C306”; top) and FACS plot of a stably-transduced polyclonal H9 hESC line with near-uniform expression of the BCL2-T2A-GFP transgene (green contour) by comparison to uncolored wild-type hESCs (bottom) (see the methods described herein for details of derivation of the H9 BCL2-T2A-GFP hESC line). M) Description of UBC-Luciferase-T2A-tdTomato lentiviral construct (top); bioluminescent assay of cultured H9 UBC-Luciferase-T2A-tdTomato hESCs validates that these cells are luciferase-expressing in vitro (bottom).

[2] = system: hESC-derived cardiac mesoderm; assay: Cardiac mesoderm differentiation into cardiovascular fates, qPCR; settings: BMP4 30 ng/mL+XAV939 1 μM with FGF2 or FGF receptor antagonists at 100 nM, 48 hours
Method: Day 2 lateral mesoderm was differentiated into day 4 cardiac mesoderm by treating them with 1 μM A8301+30 ng/mL BMP4+1 μM C59+20 ng/mL FGF2 for 48 hrs, or alternatively, with 1 μM A8301+30 ng/mL BMP4+20 ng/mL FGF2 for 24 hrs followed by 25 ng/mL Activin+30 ng/mL BMP4+1 μM C59 for the next 24 hrs (schema in FIG. 5E; positive effect of mid-stage Activin shown in FIG. 12K). Subsequently, day 4 cardiac mesoderm was briefly washed (DMEM/F12) and treated with 30 ng/mL BMP4+1 μM XAV939+200 μg/mL 2-phospho-ascorbic acid (Sigma) for 48-96 hrs to yield day 6-8 cardiomyocyte-containing populations. Spontaneously contracting cardiomyocyte foci were evident from day 8 onwards.
C) To reveal the possible identity of non-cardiac mesoderm lineages that were contaminating cardiac mesoderm-containing cultures, NKX2.5-GFP hESCs were differentiated towards mid primitive streak (day 1) and were differentiated towards a heterogeneous population containing cardiac mesoderm (day 3) by treatment with SB-505124+BMP4+C59 (without FGF2) on days 2-3 of differentiation. FACS was performed on day 3 to purify either NKX2.5-GFP^+ or NKX2.5-GFP^− cells (top subpanels) which were sorted for qPCR (bottom subpanels). Gene expression was normalized to expression of a gene in the NKX2.5-GFP^+ fraction (dotted line). D) Timecourse of gene expression in hESCs differentiating towards mid primitive streak and lateral mesoderm, with treatment by SB-505124+BMP4+C59 on days 2-3 of differentiation. […] G) To assess whether a stabilized vitamin C analog (ascorbic acid-2-phosphate) (AA2P) enhanced cardiac mesoderm differentiation into cardiomyocytes, day 4 hESC-derived cardiac mesoderm was exposed to BMP4 (30 ng/mL)+XAV939 (1 μM) for 48 hours in the presence or absence of 200 μg/mL AA2P and qPCR was conducted of day 6 populations; qPCR data were normalized such that expression values in the highest-expressing sample was normalized=1.0. […] J) In the mouse embryo, endocardium (progenitors to heart-affiliated endothelium) are marked by transient coexpression of pan-heart marker Nkx2.5 together with endothelial markers (Ferdous et al., 2009; Stanley et al., 2002).

[3] = system: day 5 hematopoietic intermediates; assay: Day 5-7 continued differentiation of hematopoietic intermediates, factor withholding; settings: for GFI1B expression: individually withholding the factor from the 8 factors, 48 hours
Method: SOX17^mCherry/+ H9 hESCs (referred to as SOX17-mCherry hESCs throughout this study) were routinely propagated in mTeSR1 (StemCell Technologies)+1% penicillin/streptomycin. They were passaged ˜1:12-1:25 as fine clumps using Accutase (Gibco) onto plates precoated with a Geltrex substratum (Gibco) in mTeSR1 medium supplemented with thiazovivin ([…]; a ROCK inhibitor). After overnight plating, hESCs were washed (DMEM/F12) and differentiated towards posterior PS using BMP4 (15-40 ng/mL, R&D Systems), CHIR99021 ([…]), FGF2 (20 ng/mL, Invitrogen) and PIK90 (100 nM, Calbiochem) for 24 hours, with the optional inclusion of Activin (30 ng/mL, R&D Systems) to induce mid PS. Day 1 mid or posterior PS was subsequently washed (DMEM/F12) and further differentiated using BMP4 (40 ng/mL), GDC-0941 (0.25-2.5 μM, Cellagen Technology), Forskolin (10 μM, Tocris), SB-505124 ([…]), VEGF (100 ng/mL, R&D Systems), XAV939 (1 μM, Tocris) and ascorbic acid-2-phosphate (200 μg/mL, Sigma) for 24 hours. Day 2 cultures were further directed into the definitive hematopoietic lineage/hemogenic precursors by Activin A (15 ng/mL), GDC-0941 (0.25-2.5 μM), VEGF (100 ng/mL), XAV939 (1 μM) and ascorbic acid-2-phosphate (200 μg/mL) for 24 hours. Day 3 definitive hematopoietic progenitors were subsequently differentiated into early Runx1^lowGfi1^low hemogenic intermediates through day 4-5 treatment with BMP4 (50 ng/mL), TTNPB (500 nM), VEGF (100 ng/mL) and XAV939 (1 μM) for 48 hours, supplemented with SB-505124 (2 μM) on day 5. Day 5 populations were then dissociated into single cells, counted and reaggregated in individual wells of a low-adhesion V-bottom or U-bottom 96-well plate (e.g., Thermo Fisher, catalog no. 249952) with ˜15,000-20,000 cells seeded per well. Aggregates were cultured for 48 additional hours until day 7 in BMP4 (50 ng/mL), TTNPB (500 nM), VEGF (100 ng/mL), XAV939 (1 μM), SB-505124 (2 μM), SCF (25-50 ng/mL, R&D Systems), IL6 (10 ng/mL, R&D Systems) and IL6RA (250-1000 ng/mL, R&D Systems). All differentiation was conducted in serum-free CDM2 fully-defined basal media.

Molecule	cardiovascular fate promoted [2]	GFI1B expression [3]	further results
CN[C@H]1CC[C@H](N(Cc2ccc(OC)c(-c3ccncc3)c2)C(=O)c2sc3c(F)ccc(F)c3c2Cl)CC1 [21K, 3-chloro-4,7-difluoro-N-(4-methoxy-3-(pyridin-4-yl)benzyl)-N-((1r,4r)-4-(methylamino)cyclohexyl)benzo[b]thiophene-2-carboxamide]			sclerotome fate induction ([1]; 21K with C59, 2-3 days): efficiently induced the sclerotome fate; EN1 induction ([1]; later stage CHIR99021+21K 5 nM, 24-48 hours): important to induce EN1
CCN1CCN(c2ccc(Nc3cc(N(C)C(=O)Nc4c(Cl)c(OC)cc(OC)c4Cl)ncn3)cc2)CC1 [BGJ398]	promoted (pro)epicardium		
CCN(CC)CCCCNc1ncc2cc(-c3cc(OC)cc(OC)c3)c(NC(=O)NC(C)(C)C)nc2n1 [PD173074, N-[2-[[4-(Diethylamino)butyl]amino]-6-(3,5-dimethoxyphenyl)pyrido[2,3-d]pyrimidin-7-yl]-N′-(1,1-dimethylethyl)urea]	promoted (pro)epicardium		
CS(=O)(=O)c1ccc(C(=O)Nc2ccc(Cl)c(-c3ccccn3)c2)c(Cl)c1 [Vismodegib]			dorsal somite marker PAX3 and sclerotome fate ([1]; CHIR together with Vismodegib): sustained dorsal somite marker PAX3 while inhibiting the sclerotome fate
AZD4547	promoted (pro)epicardium		
FGF2: FGF agonist, FGF family ligand	promoted endocardium		
IL6: IL6 ligand		strongly diminished	
SCF: SCF protein signaling through the KIT receptor		strongly diminished	
VEGF		did not markedly impair GFI1B expression	vein marker NR2F2 expression ([3]; withholding the factor): increased expression of the vein marker NR2F2
IL6RA: soluble IL6 receptor ectodomain (protein) LAPRRCPAQEVARGVLTSLPGDSVTLTCPGVEPEDNATVHWVLRKPAAGSHPSRWAGMGRRLLLRSVQLHDSGNYSCYRAGRPAGTVHLLVDVPPEEPQLSCFRKSPLSNVVCEWGPRSTPSLTTKAVLLVRKFQNSPAEDFQEPCQYSQESQKFSCQLAVPEGDSSFYIVSMCVASSVGSKFSKTQTFQGCGILQPDPPANITVTAVARNPRWLSVTWQDPHSWNSSFYRLRFELRYRAERSKTFTTWMVKDLQHHCVIHDAWSGLRHVVQLRAQEEFGQGEWSEWSPEAMGTPWTESRSPPAENEVSTPMQALTTNKDDDNILFRDSANATSLPVQDSSSVPLP		strongly diminished	

— patent US10787640B2, “Producing mesodermal cell types and methods of using the same” (The Board of Trustees of the Leland Stanford Junior …, priority 2015, dated 2020)
